≈ marks a conversion by molar mass, not a printed value. Where “and” joins values, the source holds several entries; their conditions need not be identical. Equal entries are not always repeated. Where two headings read alike, the source gives them in different places.
How the values were obtained:
[1] = Skin permeation study, Franz diffusion cell; format: in vitro ADME, porcine; conditions: for Cumulative amount at 8th hour: 1% w/v in deionized water; for Cumulative amount at 8th hour / Permeated through skin into receptor / Recovered in donor compartment / Recovered in skin / Recovered in skin outside diffusion area / Recovered in skin swabs / Recovered on parafilm and in washes / Cumulative amount comparison of PPD vs derivatives (times less than PPD): 8 h; for Permeated through skin into receptor / Recovered in donor compartment / Recovered in skin / Recovered in skin outside diffusion area / Recovered in skin swabs / Recovered on parafilm and in washes: mass balance; for recovery at 8 h, 1 % w/v: pig, end of 8 h, read-out: Total recovery (mean percentage parent compound recovery)
Description: In each Franz cell, a piece of pig ear skin prepared to a thickness of […] was clamped securely. 5 mL of PBS solution was added to the receiver compartment which was purged of air bubbles to ensure maximal contact of the skin piece with the solution. Donor solution was prepared by dissolving N1-N13 in deionized water at 1% w/v, and 900 μL was added to the donor compartment. The study was conducted for 8 h, and aliquots of 200 μL were removed from the receiver solution and topped up with fresh PBS at each timepoint of 15-minutes intervals for the first hour and every hour after that.
For mass balance, at the end of 8 h, skin pieces and swabs of the top and bottom surface of the skin were collected and stored in ACN for N1-N13 extraction. Donor solution and receiver solution were also collected.
The aliquot samples collected were subjected to 2-step extraction using 750 μL of dichloromethane (DCM). […] The solvent was dried using the TurboVap, and then reconstituted with 198 μL of 0.1% formic acid in 50% methanol in water and spiked with 2 μL of ANP (internal standard). The processed aliquot samples and mass balance samples were then sent for analysis using LC-MS/MS. The compounds' steady state fluxes and permeability coefficients were then calculated by fitting the solution to Fick's […] of diffusion at the steady state (linear part) of each experimental cumulative amount curve.

[2] = Thermodynamic solubility assay (modified shake flask, LC-MS/MS); conditions: Milli-Q water, pH=7, 25° C., 24 h, 3 separate determinations; for solubility at 24 h: 25 °C, pH 7, water, thermodynamic from solid
Description: The aqueous solubilities (pH=7) of these compounds were measured using the modified shake flask method and LC-MS/MS. Each hair dye was added into a 2 mL glass vial containing Milli-Q water (1 mL) to form the precipitates at 25° C. Then the mixture was subjected to a solubility-equilibrium stage. The vials were shaken at 300 rpm at 25° C. for 24 h. The precipitate was separated by centrifugation at 23,000 g for 20 min. Subsequently, 0.5 mL of supernatant was transferred into a 1 mL Eppendorf tube, and it was centrifuged again as mentioned above. The supernatant was then used for LC-MS/MS analysis.
The mass spectrometric analysis was performed by use of a AB SCIEX QTRAP 5500 tandem mass spectrometry (MS/MS) system (AB SCIEX, Framingham, MA, USA) operating in triple quadrupole positive mode (ESI+) equipped with an AB Sciex Turbo Ion Spray interface. Acquisition and analysis of data were performed with Analyst software ver. 1.4.2 (Applied Biosystems) which performed all chromatographic peak integration. For each hair dye, a standard curve consisting of four concentrations was established.
Solvent A was composed of 0.1% [v/v] formic acid in Milli-Q water while solvent B was composed of 0.1% [v/v] formic acid in acetonitrile. A mobile phase gradient pumped at 0.6 mL/min was used to elute the hair dyes from the column. The column was equilibrated for 1 min resulting in a total run time of 5 min. The injection volume was 5.0 μL for all derivatives. To prevent compound accumulation on the needle, 50% methanol in ACN was used as needle wash for 30 s per sample.

[3] = system: THP-1 cells; experiment: MTT assay on THP-1 cells (CV75); format: cell-based, human; conditions: THP-1 cells, 24 h
Description: THP-1 (human acute monocytic leukaemia cell line) cell suspension was adjusted to 1×10^5 cells per well and seeded in 96-well plates. The plate was incubated at 37° C. with 5% CO2. After 24 h, 10 mM stock solutions of N1-N13 were prepared in autoclaved milli-Q water. A series of concentrations diluted in media was prepared and added to the wells. Each concentration was performed in 6-replicates, and seeded wells with only media and no compound were used as controls while wells with only media were used as blanks. The plate was incubated for 24 h, after which 100 μL of MTT reagent was added and the plate was further incubated for 3 h before adding 100 μL of DMSO. Subsequently, the plate was shaken for 20 min, and then absorbance at 570 nm was determined using a Bio-Tek plate reader. Percentage cell viability was calculated and CV75 values were determined.

[4] = system: HaCaT cells; experiment: MTT assay on HaCaT cells; format: cell-based; conditions: Homo sapiens, 72 h
Description: HaCaT (human, adult, low calcium, high temperature, skin keratinocyte) cell suspension was adjusted to 5×10^3 cells per well and seeded in 96-well plates, then incubated at 37° C. with 5% CO2. After 24 h, 10 mM stock solutions of N1-N13 in autoclaved milli-Q water were prepared and serially diluted concentrations were added to the wells. Each concentration was performed in 6-replicates, and seeded wells with only media and no compound were used as controls while wells with only media were used as blanks. The plate was incubated for 72 h, after which 100 μL of MTT reagent was added and the plate was further incubated for 3 h before adding 100 μL of DMSO. Subsequently, the plate was shaken for 20 min, and then absorbance at 570 nm was determined using a Bio-Tek plate reader.

[5] = HaCaT cells, MTT, read-out: IC50

Row | SMILES | Cumulative amount at 8th hour [1] | Permeated through skin into receptor [1] | Recovered in donor compartment [1] | Recovered in skin [1] | Recovered in skin outside diffusion area [1] | Recovered in skin swabs [1] | Recovered on parafilm and in washes [1] | recovery at 8 h, 1 % w/v [1] | solubility at 24 h [2] | Solubility [2] | CV75 (concentration affording 75% cell viability), 1 × CV75 [3] | IC50 [4, 5] | Cumulative amount comparison of PPD vs derivatives (times less than PPD) [1] | IC50 ([4]; HaCaT)
1 | COC(COc1cc(N)ccc1N)OC [Compound N1, 2-(2,2-dimethoxyethoxy)benzene-1,4-diamine] | 0.0073 μg/cm^2 | <0.001 % of applied compound dose | 96.7 % of applied compound dose | 0.05 % of applied compound dose | 0.0015 % of applied compound dose | 0.04 % of applied compound dose | 0.003 % of applied compound dose | 96 ± 1.26% | 78 to 100 mg/mL (≈ 367 to 471 mM) | 85 + 4.0 mg/ml | 143.4 µg/mL | 508 µM | – | –
2 | COCOc1cc(N)ccc1N [Compound N2, 2-(methoxymethoxy)benzene-1,4-diamine] | – | <0.001 % of applied compound dose | 98.2 % of applied compound dose | 0.04 % of applied compound dose | 0.0024 % of applied compound dose | 0.05 % of applied compound dose | 0.004 % of applied compound dose | 98 ± 1.33% | 78 to 100 mg/mL (≈ 464 to 595 mM) | 90 + 2.6 mg/ml | 72.4 µg/mL | 297 µM | 453.7 | –
3 | CCOCOc1cc(N)ccc1N [Compound N3, 2-(ethoxymethoxy)benzene-1,4-diamine] | 0.0088 μg/cm^2 and 0.00875 μg/cm^2 | <0.001 % of applied compound dose | 97.2 % of applied compound dose | 0.01 % of applied compound dose | 0.004 % of applied compound dose | 0.04 % of applied compound dose | 0.005 % of applied compound dose | 97 ± 1.05% | 65 to 72 mg/mL (≈ 357 to 395 mM) | 65 + 3.6 mg/ml | 115 µg/mL | 457 µM | – | –
4 | Nc1ccc(N)c(OCC2CO2)c1 (centres unmarked) [Compound N4, 2-(oxiran-2-ylmethoxy)benzene-1,4-diamine] | 0.0104 μg/cm^2 | <0.001 % of applied compound dose | 98.9 % of applied compound dose | 0.02 % of applied compound dose | 0.005 % of applied compound dose | 0.03 % of applied compound dose | 0.008 % of applied compound dose | 99 ± 1.15% | 65 to 72 mg/mL (≈ 361 to 400 mM) | 70 + 4.6 mg/ml | 62.3 µg/mL | – | – | 578 µM
5 | COCCOCCOc1cc(N)ccc1N [Compound N5, 2-[2-(2-methoxyethoxy)ethoxy]benzene-1,4-diamine] | 0.0065 μg/cm^2 and 0.00654 μg/cm^2 | <0.001 % of applied compound dose | 95.3 % of applied compound dose | 0.04 % of applied compound dose | 0.0045 % of applied compound dose | 0.06 % of applied compound dose | 0.009 % of applied compound dose | 95 ± 1.42% | 78 to 100 mg/mL (≈ 345 to 442 mM) | 85 + 2.5 mg/ml | 68.3 µg/mL | 43.3 µM | 825.0 | –
6 | N#CCOc1cc(N)ccc1N [Compound N6, 2-(2,5-diaminophenoxy)acetonitrile] | 0.0145 μg/cm^2 | <0.001 % of applied compound dose | 99.1 % of applied compound dose | 0.01 % of applied compound dose | 0.006 % of applied compound dose | 0.04 % of applied compound dose | 0.002 % of applied compound dose | – | – | – | 123.7 µg/mL | – | – | > 1000 µM
7 | COCCOc1cc(N)ccc1N [Compound N7, 2-(2-methoxyethoxy)benzene-1,4-diamine] | 0.0080 μg/cm^2 and 0.008 μg/cm^2 | <0.001 % of applied compound dose | 97.5 % of applied compound dose | 0.03 % of applied compound dose | 0.007 % of applied compound dose | 0.09 % of applied compound dose | 0.001 % of applied compound dose | 97 ± 1.49% | 65 to 72 mg/mL (≈ 357 to 395 mM) | 62 mg/mL (≈ 340 mM) | 44.6 µg/mL | 33.5 µM | 675.0 | –

From patent US20240197596A1, “COMPOUNDS USEFUL AS HAIR DYES” (National University of Singapore, priority 2021, published 2024)
